According to the NIST ThermoML archive (doi:10.1021/je300630u):

Experiments:
[1] = refractive index (other wavelength) (dimensionless); details: 101 kPa, Liquid, Wavelength=632.8 nm, Standard Abbe refractometry
[2] = refractive index (other wavelength) (dimensionless); xn = mol fraction of the nth substance listed; details: 295.84 K, 101.3 kPa, Liquid, Wavelength=632.8 nm, Standard Abbe refractometry

N#Cc1ccccc1 [benzonitrile]
[1]
Details	refractive index
293.37 K	1.5252
293.99 K	1.5249
294.53 K	1.5247
295.09 K	1.5243
295.66 K	1.5241
295.84 K	1.5239
296.11 K	1.5238
296.8 K	1.5236
297.15 K	1.5233
297.91 K	1.523
298.2 K	1.5228
298.8 K	1.5225
298.83 K	1.5226
299.26 K	1.5223
300.06 K	1.5219
300.12 K	1.5219
300.31 K	1.5218
301.13 K	1.5214
301.23 K	1.5214
301.35 K	1.5213
302.26 K	1.5209
302.31 K	1.5209
302.42 K	1.5208
303.41 K	1.5203
304.49 K	1.5198
305.64 K	1.5192
306.89 K	1.5186
307.88 K	1.5181

N#Cc1ccccc1 [benzonitrile] + CCCCCCCCCCCCC
[2]
Details	refractive index
x1 = 0.1148	1.428
x1 = 0.2007	1.4323
x1 = 0.3192	1.439
x1 = 0.3935	1.4443
x1 = 0.5	1.4525
x1 = 0.6113	1.4629
x1 = 0.7078	1.4738
x1 = 0.8007	1.4865
x1 = 0.9009	1.5032
x1 = 1	1.5239

CCCCCCCCCCCCC [tridecane]
[1]
Details	refractive index
293.2 K	1.4244
294.26 K	1.4239
295.29 K	1.4234
295.84 K	1.4231
296.33 K	1.423
297.35 K	1.4225
298.37 K	1.4221
299.42 K	1.4216
300.39 K	1.4212
301.47 K	1.4207

CCCCCCCCCCCCC [tridecane] + N#Cc1ccccc1
Details	refractive index
[2], x2 = 0	1.4231
